Measurements as given in ChEMBL document CHEMBL1201862, “PubChem BioAssay data set” (2004).
Calls of active or inactive are those of the source.

Tests used:
[1] = target: FAD-linked sulfhydryl oxidase ALR (Homo sapiens, UniProt P55789); experiment: ALR-catalysed DTT oxidation blockers – biochemical, H2O2 detection, luminescence, cherry-pick, dose response (AID 493248)
[2] = target: T1, Rac GTPase-activating protein 1 (Homo sapiens, UniProt Q9H0H5); experiment: blockers of MgcRacGAP-driven Rac1 GTP hydrolysis – biochemical, ADP Hunter fluorescence, primary and confirmatory, confirmation (AID 624330); assay type: functional
T1 sequence (Q9H0H5 whole entry): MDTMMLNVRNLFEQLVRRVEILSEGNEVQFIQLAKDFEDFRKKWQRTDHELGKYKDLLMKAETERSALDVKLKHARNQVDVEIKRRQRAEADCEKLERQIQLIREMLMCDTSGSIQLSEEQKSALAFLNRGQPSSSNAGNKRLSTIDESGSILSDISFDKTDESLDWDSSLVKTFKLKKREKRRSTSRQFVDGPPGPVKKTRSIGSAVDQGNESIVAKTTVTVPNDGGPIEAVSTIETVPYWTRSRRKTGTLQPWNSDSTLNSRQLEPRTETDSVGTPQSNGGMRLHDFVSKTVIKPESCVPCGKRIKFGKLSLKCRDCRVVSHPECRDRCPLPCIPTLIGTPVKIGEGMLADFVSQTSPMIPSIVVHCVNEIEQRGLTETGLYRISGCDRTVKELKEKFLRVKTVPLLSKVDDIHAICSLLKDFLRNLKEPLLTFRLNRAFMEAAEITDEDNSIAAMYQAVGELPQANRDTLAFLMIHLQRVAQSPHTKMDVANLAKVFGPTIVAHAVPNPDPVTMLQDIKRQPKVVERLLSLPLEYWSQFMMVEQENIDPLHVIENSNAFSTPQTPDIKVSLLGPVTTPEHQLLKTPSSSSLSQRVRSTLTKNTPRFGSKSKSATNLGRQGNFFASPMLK

[3] = viability of uninfected HEp-2 cells – cell-based, HTS, cytotoxicity control for RSV inhibitor project, dose response (AID 2410); assay type: functional; settings: human respiratory syncytial virus
Large T antigen = Large T antigen (Simian virus 40, UniProt P03070); assay type: functional, Betapolyomavirus macacae;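 further: Confirmatory-stage PubChem screen for compounds that inhibit SV40 T antigen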
cells = assay type: functional
[4] = Luminescence Cell-Based Dose Retest to Confirm Inhibitors of Cancer Stem Cells. [Related pubchem assays (depositor defined):AID2717, AID2721]; assay type: functional; settings: Homo sapiens
Cytochrome P450 2C9 = Cytochrome P450 2C9 (Homo sapiens, UniProt P11712)
[5] = Trypanosoma cruzi growth suppression in host cells – NIH3T3 host cells, beta-gal luminescence, confirmation (AID 2044); assay type: functional, cell-based;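 further: intracellular parasites grown in NIH/3T3 mouse fibroblasts as host cells; luminescent beta-galactosidase reporter signal from transgenic T. cruzi replicating inside host cells; inhibitors lower the luminescence signal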
[6] = NIH3T3 cell viability loss – ATP luminescence, mouse fibroblasts, counter-screen, dose response (AID 2010); assay type: functional, cell-based;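 further: cells exposed to compound for about 90 hours before reading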
[7] = test system: Streptococcus sp. 'group A'; experiment: Streptococcus pyogenes SK(-)GAS viability under kanamycin – luminescence, BacTiterGlo, confirmation, counter-screen for streptokinase expression inhibitor project, dose response (AID 1900); assay type: functional, organism-based
Streptococcus = experiment: GAS UMAA2166 growth inhibition – luminescence, BacTiterGlo, counter-screen for streptokinase expression inhibitor project, dose response (AID 1915); assay type: functional, organism-based;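 further: potency for reduction of bacterial viability or growth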
Streptokinase A = target: T2, Streptokinase A (Streptococcus pyogenes serotype M1, UniProt P10520); experiment: viability-normalized secreted streptokinase activity reduction – plasminogen activation absorbance, OD405, dose response (AID 1914); assay type: functional, Streptococcus pyogenes M1 GAS;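 further: secreted streptokinase activity via plasminogen activation per viability signal from cell pellet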
T2 sequence (P10520 whole entry): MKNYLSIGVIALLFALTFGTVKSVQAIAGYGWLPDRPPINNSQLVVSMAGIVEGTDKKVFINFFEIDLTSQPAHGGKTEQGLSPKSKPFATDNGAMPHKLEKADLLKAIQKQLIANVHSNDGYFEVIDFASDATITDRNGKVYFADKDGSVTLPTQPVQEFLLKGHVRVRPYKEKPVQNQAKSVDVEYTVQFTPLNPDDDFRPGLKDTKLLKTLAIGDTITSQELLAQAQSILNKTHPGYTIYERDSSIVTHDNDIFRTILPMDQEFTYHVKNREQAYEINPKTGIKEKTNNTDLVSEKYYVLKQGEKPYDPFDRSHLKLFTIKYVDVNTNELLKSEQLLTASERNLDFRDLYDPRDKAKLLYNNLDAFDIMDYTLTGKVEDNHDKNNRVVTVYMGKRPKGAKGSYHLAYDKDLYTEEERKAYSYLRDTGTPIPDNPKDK

H4 = experiment: Luminescence Cell-Based Dose Response HTS to Identify Activators of 5'UTR Stem-Loop Driven Prion Protein mRNA Translation in H4 Neuroglioblastoma Cells. [Related pubchem assays: 1829 (Project Summary), 1814 (Primary HTS)]; assay type: functional; settings: Homo sapiens
[8] = Luminescence Cell-Based Dose Response HTS to Identify Activators of Luciferase Translation or Activity in H4 […] Cells. [Related pubchem assays: 1829 (Project Summary), 1814 (Primary HTS)]; assay type: functional
INS1 = experiment: INS-1E survival protection against cytokine death – cell-based, luminescence, retest, dose response (AID 449756); assay type: functional; settings: Rattus norvegicus;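 further: cell death triggered by IL-1 beta plus TNF-alpha plus IFN-gamma mixture; protective hits raise ATP signal compared with cytokine alone wells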
[9] = target: T3, Heat shock factor protein 1 (Mus musculus, UniProt P38532); experiment: decrease of HSF1-responsive luciferase luminescence – cell-based, NIH3T3, dose retest, confirmation (AID 2382); assay type: functional;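 further: NIH3T3 fibroblasts with HSF1-driven luciferase reporter stressed by proteasome inhibitor MG132; luminescence from HSF1-driven luciferase expression after 8 hours of MG132 stress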
T3 sequence (P38532 whole entry): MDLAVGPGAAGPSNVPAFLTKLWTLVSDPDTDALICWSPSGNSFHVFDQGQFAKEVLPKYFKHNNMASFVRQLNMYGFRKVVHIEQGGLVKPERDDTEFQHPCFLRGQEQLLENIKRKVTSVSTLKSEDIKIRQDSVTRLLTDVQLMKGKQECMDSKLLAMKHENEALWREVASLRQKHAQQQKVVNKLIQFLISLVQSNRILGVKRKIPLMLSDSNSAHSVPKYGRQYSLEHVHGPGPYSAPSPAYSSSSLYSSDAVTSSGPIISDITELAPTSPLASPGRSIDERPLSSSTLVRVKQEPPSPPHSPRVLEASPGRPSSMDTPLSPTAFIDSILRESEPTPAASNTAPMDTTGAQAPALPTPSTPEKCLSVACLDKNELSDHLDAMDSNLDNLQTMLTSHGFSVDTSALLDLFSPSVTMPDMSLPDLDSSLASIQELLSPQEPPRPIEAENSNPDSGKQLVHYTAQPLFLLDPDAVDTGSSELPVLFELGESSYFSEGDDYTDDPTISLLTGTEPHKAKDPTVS

[10] = target: Luciferin 4-monooxygenase (Photinus pyralis, UniProt P08659); experiment: inhibition of purified Photinus pyralis luciferase – biochemical, luminescence, dose response (AID 1891)
[11] = Luminescence Cell-Based Dose Confirmation HTS to Identify Inhibitors of Platelet Dense Granule Release. [Related pubchem assays: 1663 (Primary HTS), 1678 (Summary of Project)]; assay type: functional

Large T antigen, sequence (P03070 whole entry): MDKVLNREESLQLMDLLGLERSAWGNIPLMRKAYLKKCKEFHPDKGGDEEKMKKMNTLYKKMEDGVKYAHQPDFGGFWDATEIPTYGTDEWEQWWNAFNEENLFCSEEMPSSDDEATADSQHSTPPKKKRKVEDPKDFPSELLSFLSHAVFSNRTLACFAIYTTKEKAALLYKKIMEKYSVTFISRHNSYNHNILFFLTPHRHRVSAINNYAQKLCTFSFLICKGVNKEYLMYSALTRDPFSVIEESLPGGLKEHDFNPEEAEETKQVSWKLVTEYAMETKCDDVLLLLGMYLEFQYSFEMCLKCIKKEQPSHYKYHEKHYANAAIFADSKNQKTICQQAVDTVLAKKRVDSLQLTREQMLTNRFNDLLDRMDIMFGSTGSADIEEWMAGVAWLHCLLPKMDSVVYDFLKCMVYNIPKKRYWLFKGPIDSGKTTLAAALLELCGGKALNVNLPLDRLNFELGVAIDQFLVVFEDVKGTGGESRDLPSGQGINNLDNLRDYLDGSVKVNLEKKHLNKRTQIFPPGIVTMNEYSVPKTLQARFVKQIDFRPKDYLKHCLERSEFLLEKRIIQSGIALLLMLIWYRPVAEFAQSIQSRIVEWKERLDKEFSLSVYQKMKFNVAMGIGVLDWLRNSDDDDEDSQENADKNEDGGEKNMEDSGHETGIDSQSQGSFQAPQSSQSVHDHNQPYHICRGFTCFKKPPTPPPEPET
FAD-linked sulfhydryl oxidase ALR, sequence (P55789 whole entry): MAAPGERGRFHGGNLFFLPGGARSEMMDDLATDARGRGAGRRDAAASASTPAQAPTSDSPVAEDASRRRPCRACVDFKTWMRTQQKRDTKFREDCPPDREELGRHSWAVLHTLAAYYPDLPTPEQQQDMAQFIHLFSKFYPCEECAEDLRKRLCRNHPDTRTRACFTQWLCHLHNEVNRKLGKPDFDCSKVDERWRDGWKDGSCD
Cytochrome P450 2C9, sequence (P11712 whole entry): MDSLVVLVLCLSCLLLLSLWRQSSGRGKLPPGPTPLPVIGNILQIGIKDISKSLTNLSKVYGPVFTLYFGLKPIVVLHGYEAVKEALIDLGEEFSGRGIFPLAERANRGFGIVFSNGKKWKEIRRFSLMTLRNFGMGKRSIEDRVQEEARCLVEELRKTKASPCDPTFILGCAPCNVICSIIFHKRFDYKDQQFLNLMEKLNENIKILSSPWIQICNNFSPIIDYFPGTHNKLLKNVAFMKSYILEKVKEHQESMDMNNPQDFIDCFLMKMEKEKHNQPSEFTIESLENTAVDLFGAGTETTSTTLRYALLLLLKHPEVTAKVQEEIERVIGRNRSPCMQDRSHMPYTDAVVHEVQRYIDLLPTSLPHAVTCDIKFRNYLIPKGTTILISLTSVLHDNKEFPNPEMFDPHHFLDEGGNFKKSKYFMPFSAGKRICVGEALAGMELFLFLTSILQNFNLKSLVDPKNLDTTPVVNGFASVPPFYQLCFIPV
Luciferin 4-monooxygenase, sequence (P08659 whole entry): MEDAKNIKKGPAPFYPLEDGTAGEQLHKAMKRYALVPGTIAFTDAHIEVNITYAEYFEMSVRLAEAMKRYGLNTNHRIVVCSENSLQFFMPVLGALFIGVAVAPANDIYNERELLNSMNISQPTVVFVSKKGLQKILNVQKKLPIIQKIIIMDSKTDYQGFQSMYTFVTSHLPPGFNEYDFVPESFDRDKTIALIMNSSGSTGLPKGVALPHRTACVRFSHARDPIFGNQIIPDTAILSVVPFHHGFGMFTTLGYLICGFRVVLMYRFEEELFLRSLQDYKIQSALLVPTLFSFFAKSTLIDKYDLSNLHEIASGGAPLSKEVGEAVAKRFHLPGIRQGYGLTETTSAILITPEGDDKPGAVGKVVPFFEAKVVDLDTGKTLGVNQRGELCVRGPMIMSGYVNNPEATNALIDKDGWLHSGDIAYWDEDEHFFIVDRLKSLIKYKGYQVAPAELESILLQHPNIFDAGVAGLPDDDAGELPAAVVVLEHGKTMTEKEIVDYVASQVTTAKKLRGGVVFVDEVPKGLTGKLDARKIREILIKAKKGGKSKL

In the case of `O=C(CN1CCN(c2ccccc2)CC1)Nc1ccccc1Cl`, the AC50 [1] is reported as 6.68 µM (active).
For `Cc1cccc(-n2c(=O)c3ccccc3n3c(S)nnc23)c1C`, the IC50 [2] was 40.7 µM (active).
With `CCOc1cc(/C=C(\C#N)C(=O)NCC2CCCO2)ccc1O` (stereo unspecified) the IC50 [2] was 41.5 µM (active).
With `NNC(=O)c1sc(-c2ccc(Cl)cc2)cc1N` the AC50 [1] was 2.39 µM (active).
In the case of `CCN(CC)S(=O)(=O)c1ccc(NCC2COc3ccccc3O2)c([N+](=O)[O-])c1` (stereo unspecified), the CC50 [3] is reported as 13 µM (active).
For `COc1cc(/C(C)=N/NC(=O)CSc2nnc(C)s2)ccc1O`, the IC50 (Large T antigen) was 24.2 µM (active).
With `COc1cccc2cc(C(=O)NCc3ccc(F)cc3)c(=N)oc12` the IC50 (cells) was > 50 µM (active).
With `CCOc1ccc(-c2nnc(NC(=O)CCCOc3cccc(C)c3)o2)cc1` the IC50 (cells) was 5.86 µM (active).
In the case of `O=C1C=C(c2ccc(Cl)c(C(F)(F)F)c2)C[C@@H](c2ccc(Cl)cc2)C1`, the AC50 [4] is reported as 3.41 µM (active) and the CC50 [3] is reported as 12.1 µM (active).
For `COc1cc(NS(=O)(=O)c2ccc(NC(=O)NC3CCCCC3)cc2)nc(OC)n1`, the AC50 [1] was 3.49 µM (active).
For `COC(=O)COc1ccc(-c2nn(C)c(=O)c3ccccc23)cc1`, the IC50 (cells) was 2.56 µM (active).
With `CN(C)c1ccc(CNc2ccc3c(c2)ncn3C)cc1` the IC50 (Large T antigen) was 22.1 µM (active) and the AC50 [1] was 1.78 µM (active).
With `COc1ccc(N2CSC3=C(C#N)C(c4cc(OC)ccc4OC)CC(=O)N3C2)c(OC)c1` (stereo unspecified) the IC50 (Large T antigen) was 63.1 µM (active).
In the case of `Cc1cc(C=C2C(=O)N(C)C(=S)N(C)C2=O)c(C)n1-c1ccncc1`, the IC50 (Large T antigen) is reported as 50.2 µM (active).
In the case of `COc1cc(/C=C/C(=O)OCC(=O)Nc2ccc3c(c2)OCCO3)ccc1O`, the IC50 [2] is reported as 39.8 µM (active).
In the case of `COc1ccc(NC(S)=NCC2CCN(c3ccc(OC)cc3)C2)cc1` (stereo unspecified), the IC50 [2] is reported as 39.4 µM (active).
In the case of `Cc1cccc(NC(=O)CC2Nc3cccc4cccc(c34)NC2=O)c1` (stereo unspecified), the AC50 (Cytochrome P450 2C9) is reported as 12.6 µM (inconclusive) and the CC50 [3] is reported as > 50 µM (active).
With `COc1ccc(OC)c(Nc2nc(N(C)c3ccccc3)nc(N)c2[N+](=O)[O-])c1` the EC50 [5] was 0.888 µM (active), the CC50 [3] was > 50 µM (active) and the EC50 [6] was > 30 µM (not active).
In the case of `COC(=O)c1c(NC(=O)C2CC=CCC2C(=O)O)sc(C(N)=O)c1C` (stereo unspecified), the AC50 [1] is reported as 3.13 µM (active).
For `CN(C)S(=O)(=O)c1ccc(-c2cn3ccccc3n2)cc1`, the AC50 [1] was 2.05 µM (active).
With `CCOC(=O)c1cc(-c2cccs2)nc2c1c(C)nn2-c1ccccn1` the AC50 [4] was 8.5 µM (active), the EC50 [7] was 13.1 µM (active) and the EC50 (Streptococcus) was 21.6 µM (active). The CC50 [3] was 16.4 µM (active) and the EC50 (Streptokinase A) was 122 µM (active).
In the case of `CCn1c(=O)c(C(=O)CN(C)Cc2cccc(OC)c2OC)c(N)n(Cc2ccccc2)c1=O`, the IC50 [2] is reported as 83.9 µM (active).
With `O=C(Nc1nc(=O)c2ccccc2s1)c1ccc(F)cc1` the EC50 (H4) was > 120 µM (not active) and the EC50 [8] was 0.107 µM (active).
For `CCC(Sc1nc(C)cc(C)n1)C(=O)NC1=NN=C(c2ccc(C)cc2)CS1` (stereo unspecified), the AC50 (INS1) was 4.8 µM (active) and the EC50 [9] was 12.2 µM (active).
For `CCOC(=O)c1cc(-c2csc(COc3ccc(Cl)cc3)n2)on1`, the IC50 (cells) was < 0.1 µM (active).
For `O=C(COc1ccc(-c2ccccc2)cc1)Nc1cccnc1`, the IC50 (cells) was 4.39 µM (active).
With `CCSc1ncc(/C=N/Nc2ccc([N+](=O)[O-])cc2)n1C` the EC50 (H4) was 0.793 µM (active).
For `COC(=O)CN(C#N)c1nc(N(C)C)nc(N(C)C)n1`, the IC50 (cells) was 9.57 µM (active).
With `O=C(NCCCN1CCCC1=O)C(=O)Nc1cccc(F)c1` the EC50 (H4) was > 120 µM (not active) and the EC50 [8] was 0.233 µM (active).
In the case of `CC(=O)c1cccc(Oc2cc(NN3CCCCC3)c([N+](=O)[O-])cc2[N+](=O)[O-])c1`, the AC50 [1] is reported as 0.471 µM (active).
With `COc1cc(C2OCC3C(c4ccc(OC5OC(CO)C(O)C(O)C5O)c(OC)c4)OCC23)ccc1O` (stereo unspecified) the IC50 (Large T antigen) was 21.3 µM (active).
In the case of `CCn1c2ccccc2c2nnc(SCc3ccccc3)nc21`, the CC50 [3] is reported as 34.6 µM (active).
With `COc1ccccc1CNCC(=O)N1CC(=O)Nc2ccccc21` the IC50 [2] was 143 µM (active).
With `Cc1csc(/C(=N/OC(=O)c2ccco2)C(N)=O)n1` the AC50 [1] was 0.252 µM (active).
With `COc1cc(/C=N/NC(=O)c2ccc3[nH]cnc3c2)ccc1O` the IC50 (Large T antigen) was 7.38 µM (active).
For `O=C(O)c1ccc(NC(=O)c2cn(-c3ccccc3)nc2-c2ccc(Br)cc2)cc1`, the CC50 [3] was 21 µM (active).
In the case of `CCn1nnc(NC(=O)c2sc3ccccc3c2Cl)n1`, the IC50 (cells) is reported as 19.2 µM (active).
With `COc1cc(/C=N/NC(=O)c2nonc2C)ccc1O` the IC50 [2] was 28.8 µM (active), the EC50 [10] was 23.5 µM (active) and the EC50 [11] was 4.42 µM (active).
For `CCOC(=O)Cc1csc(NC(=O)/C=C/c2ccccc2Cl)n1`, the CC50 [3] was 18.9 µM (active).
In the case of `Cc1ccc(O)c(CCc2ccc(O)cc2)n1`, the AC50 [1] is reported as 2.64 µM (active).
For `CC(=O)Nc1ccc(OC(=O)Cc2ccc(Cl)cc2)cc1`, the IC50 [2] was 23.4 µM (active).
For `CNc1nc(-c2ccc3c(c2)CCN3C(=O)c2cccc(F)c2)cs1`, the EC50 (H4) was 4.2 µM (active) and the EC50 [8] was 1.41 µM (active).
In the case of `CC(=O)O[C@H]1C[C@@]2(C)[C@@H](C[C@@H](O)[C@H]3[C@@]4(C)CC[C@@H](O)[C@@H](C)[C@@H]4CC[C@@]32C)/C1=C(/CCC=C(C)C)C(=O)O`, the IC50 (Large T antigen) is reported as 31.6 µM (active).
With `Cc1ccc(N2NC(=O)/C(=C/C=C/c3ccco3)C2=O)cc1C` the IC50 (cells) was 13 µM (active).
In the case of `COc1cc(/C=C/C(=O)OCc2cn3cc(Cl)ccc3n2)ccc1O`, the IC50 [2] is reported as 45.5 µM (active).
With `Oc1c2c(nc3cc(-c4cccc(Cl)c4)nn13)CCCC2` the CC50 [3] was 39.3 µM (active).
